From paper PMC12926254, “Novel pyrazole carboxylate derivatives as lonazolac bioisosteres with selective COX-2 inhibition: design, synthesis and anti-inflammatory activity” (Molecular Diversity, 2025)

Molecular target: T1, 5-LOX (Homo sapiens, UniProt P09917)
T1 sequence (P09917 1-674): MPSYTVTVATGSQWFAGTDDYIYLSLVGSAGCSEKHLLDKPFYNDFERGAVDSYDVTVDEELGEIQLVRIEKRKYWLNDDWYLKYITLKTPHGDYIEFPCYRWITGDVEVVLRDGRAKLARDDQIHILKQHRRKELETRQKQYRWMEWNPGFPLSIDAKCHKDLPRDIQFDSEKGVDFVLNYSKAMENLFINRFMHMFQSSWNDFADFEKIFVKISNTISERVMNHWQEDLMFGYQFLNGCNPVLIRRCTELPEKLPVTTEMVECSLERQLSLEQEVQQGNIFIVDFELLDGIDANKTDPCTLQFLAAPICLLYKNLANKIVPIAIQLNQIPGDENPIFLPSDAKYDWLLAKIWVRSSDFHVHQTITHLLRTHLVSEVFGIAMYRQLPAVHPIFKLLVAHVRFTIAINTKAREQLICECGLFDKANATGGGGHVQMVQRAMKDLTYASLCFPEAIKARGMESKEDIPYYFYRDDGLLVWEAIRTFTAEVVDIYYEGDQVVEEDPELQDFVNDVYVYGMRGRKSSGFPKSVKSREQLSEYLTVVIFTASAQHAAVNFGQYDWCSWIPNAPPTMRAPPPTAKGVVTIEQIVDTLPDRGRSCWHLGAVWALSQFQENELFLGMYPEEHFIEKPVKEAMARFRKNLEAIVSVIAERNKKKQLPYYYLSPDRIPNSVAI
Assay: In vitro 5-LOX inhibition (5-Lipoxygenase Inhibitor Screening Kit K980-100, Biovision)
Description: 5-LOX inhibitor Screening Protocol: dissolve the test compounds in DMSO. The solution was prepared at a concentration so that the final 100 µl reaction volume per well contains no more than 2 µl of the test chemical solution added to it. Each well was filled in the 96-well white plate with 2 µl of the test substance. […] To the “Enzyme Control” well, was filled with 40 µl of LOX Assay Buffer. In order to run the required number of assays, enough reagents were mixed. 40 µl of the following mix was prepared for each well: Buffer for Reaction MIx LOX Assay 34 µl LOX Probe 2 µl 5. LOX Enzyme 4 µl After thoroughly mixing, the Reaction Mix was transferred to the wells holding the Test Compounds, Enzyme Control, Inhibitor Control, and “Solvent Control.” substrate was added after 10 min of RT incubation of the plate. The wells shouldn’t contain any bubbles. […] To obtain the 5X solution, the 500 X solution with LOX Assay Buffer was diluted at a ratio of 1:100, depending on the number of reactions to be conducted. For each reaction, 20 µl of 5X solution will be required. How much substrate is needed based on the number of reactions. The final substrate functioning solution needs to be consumed that same day and stored on ice. The remaining stock solution should be immediately stored at -20 °C. 20 µl of 5X LOX Substrate should be added with a multichannel pipette to every well. […] To get the RFU for each sample, the RFU was subtracted at time t1 from the RFU at time t2, making sure that both t2 and t1 fall within the assay's linear range. The slope for each sample (including the “enzyme control”)was multiplied by the time Δt (t2 – t1) to find the ΔRFU. In the equations below, the values was substituted for “Solvent Control” for “Enzyme Control” if the two slopes disagree. %Inhibition=[slopeof(enzymecontrol)-slopeof(testcompound)]/slopeof(enzymecontrol)×100 %Relativeactivity=[slope(testcompound)]/slope(enzymecontrol)×100

IC50 [nM]	SMILES
813 ± 32	CCOC(=O)COc1ccc(C2=NN(c3ccc(S(C)(=O)=O)cc3)C(c3ccc(Br)cc3)C2)cc1 (stereo not drawn) [Compound 15 h, Ethyl 2-(4-(5-(4-bromophenyl)-1-(4-(methylsulfonyl)phenyl)-4,5-dihydro-1H-pyrazol-3-yl)phenoxy)acetate]
453 ± 18	CCOC(=O)COc1ccc(C2=NN(c3ccc(S(C)(=O)=O)cc3)C(c3ccc(OC)cc3)C2)cc1 (stereo not drawn) [Compound 15c, Ethyl 2-(4-(5-(4-methoxyphenyl)-1-(4-(methylsulfonyl)phenyl)-4,5-dihydro-1H-pyrazol-3-yl)phenoxy)acetate]
241 ± 9	CCOC(=O)COc1ccc(C2=NN(c3ccc(S(C)(=O)=O)cc3)C(c3cc(OC)c(OC)c(OC)c3)C2)cc1 (stereo not drawn) [Compound 15d, Ethyl 2-(4-(1-(4-(methylsulfonyl)phenyl)-5-(3,4,5-trimethoxyphenyl)-4,5-dihydro-1H-pyrazol-3-yl)phenoxy)acetate]
